Source: patent US20090068290A1, “BIFEPRUNOX DOSES FOR TREATING SCHIZOPHRENIA” (priority 2006, published 2009)

What was measured:
Format in all cases: in vivo, human
[1] = tested on: adult subjects with schizophrenia; experiment: PANSS total score, Clinical Study One (6-week, risperidone-referenced); settings: for Change from Baseline in PANSS Total Score, Mean (S.D.) / Change from Baseline in PANSS Total Score, Median / PANSS Total Score, Trt Effect (bifeprunox minus placebo mean change from Baseline): ITT; for PANSS Total Score, Trt Effect (bifeprunox minus placebo mean change from Baseline): ANCOVA
Description: There were five treatment groups in this study. […] Study medication was administered once daily. After Baseline measurements were performed, the titration phase was begun. Bifeprunox treated subjects were titrated up to 5 mg, 10 mg or 20 mg according to a standardized titration schedule (Day 1: 0.125 mg, Day 2: 0.25 mg, Day 3: 0.5 mg, Day 4: 1.0 mg, Day 5: 2.0 mg, Day 6: 5.0 mg, Day 7: 10.0 mg, Day 8: 20 mg). When the assigned dose was reached, subjects were maintained at that dose for the remainder of the six-week treatment period.
Test Product. Dose and Mode of Administration: Bifeprunox tablets, total daily dose 0.125 mg to 20 mg administered orally using a once daily dosing regimen.
The change in the Positive and Negative Symptom Scale (PANSS) total score, from baseline to endpoint, was the primary outcome measure. Secondary efficacy measures included: PANSS positive, PANSS negative, PANSS general psychopathology (GPP) score, PANSS-derived Brief Psychiatric Rating Scale (BPRS) score, Clinical Global Impressions-Severity of Illness (CGI-S), CGI-Improvement (CGI-I) scores, and responder rates. Safety and tolerability evaluations included extrapyramidal symptoms (EPS), weight gain, lipid profile, and serum prolactin.

[2] = tested on: adult subjects with schizophrenia; experiment: PANSS responder rate, Clinical Study Two; settings: for PANSS 20% responder rate / PANSS 30% responder rate: Endpoint LOCF; for PANSS Responder at Endpoint, 30% Definition Responder, No / PANSS Responder at Endpoint, 30% Definition Responder, Yes / PANSS Responder at Week 6/Endpoint, 20% Definition, No / PANSS Responder at Week 6/Endpoint, 20% Definition, Yes: LOCF, ITT
Description: Notable differences were also observed between the 30 mg bifeprunox group and placebo for the change from baseline to endpoint in PANSS general psychopathology subscale score, BPRS total score, BPRS psychosis cluster score, PANSS responder rate, and CGI-I responder rate. […] A CGI-I responder refers to a subject who was categorized as “very much improved” or “much improved” in the CGI Global Improvement scale at endpoint. […]
Subjects who completed this study had the option to continue in the long-term. […] Risperidone-treated subjects were titrated from 2 mg to 6 mg daily over a three-day period and were subsequently maintained at 6 mg/day for the remainder of the treatment period. […] Blood samples were also obtained at Screening/Baseline, Week 3, and Week 6 for clinical laboratory assessments. […]

[3] = tested on: adult subjects with schizophrenia; experiment: PANSS negative symptom subscale score, Clinical Study Three; settings: Bifeprunox 20 mg, LOCF, ITT population
Description: SECONDARY OBJECTIVES To assess the efficacy of bifeprunox in treating schizophrenia using the Positive Symptom sub-scale score of the PANSS, the Negative Symptom sub-scale score of the PANSS, the General Psychopathology sub-scale of the PANSS, Brief Psychiatric Rating Scale (BPRS) total score derived from the PANSS, BPRS psychosis score derived from the PANSS, the Clinical Global Impression Severity of Illness score (CGI-S), the Clinical Global Impression Improvement score (CGI-I), CGI-I responder rate, PANSS responder rate based on the PANSS total score, Calgary Depression Scale for Schizophrenia (CDSS), and Subject Satisfaction rating.
There were four treatment arms in this study, approximately 144 subjects per arm. […] After completing the Single-Blind Placebo Lead-in Period of at least three days, bifeprunox-treated subjects were titrated from 0.25 mg up to 20 mg/day or 30 mg/day according to a standardized titration scheme over a seven- or eight-day period, respectively. When the assigned dose was reached, subjects were maintained at that dose for the remainder of the six week treatment period. […] Subjects were hospitalized (if not already inpatients) after eligibility for study entry was verified, starting from the Screening Visit until at least 10 days after Baseline. Subjects could be hospitalized longer than 10 days if considered medically necessary by the Investigator. Rating scale assessments for efficacy and abnormal movement disorders were done weekly except for Week 5. […] Subject satisfaction with study medication was assessed at Week 6.

[4] = Bifeprunox 10 mg, Endpoint LOCF
[5] = Bifeprunox 20 mg, Endpoint LOCF

## O=c1[nH]c2cccc(N3CCN(Cc4cccc(-c5ccccc5)c4)CC3)c2o1 [Bifeprunox, 7-[4-([1,1′-biphenyl]-3-ylmethyl)-1-piperazinyl]-2(3H)-benzoxazolone]
[1]; Bifeprunox 5 mg, Endpoint LOCF
  Change from Baseline in PANSS Total Score, Mean (S.D.): −9.7 (17.5)
  Change from Baseline in PANSS Total Score, Median: −8
  PANSS Total Score, Trt Effect (bifeprunox minus placebo mean change from Baseline): −4.1
[1]; Bifeprunox 5 mg, Week 1, LOCF
  Change from Baseline in PANSS Total Score, Mean (S.D.): −3.9 (13.1)
  Change from Baseline in PANSS Total Score, Median: −4
[1]; Bifeprunox 5 mg, Week 2, LOCF
  Change from Baseline in PANSS Total Score, Mean (S.D.): −6.7 (14.9)
  Change from Baseline in PANSS Total Score, Median: −7
[1]; Bifeprunox 5 mg, Week 3, LOCF
  Change from Baseline in PANSS Total Score, Mean (S.D.): −7.7 (16.1)
  Change from Baseline in PANSS Total Score, Median: −7
[1]; Bifeprunox 5 mg, Week 4, LOCF
  Change from Baseline in PANSS Total Score, Mean (S.D.): −8.7 (17.1)
  Change from Baseline in PANSS Total Score, Median: −7
[1]; [4]
  Change from Baseline in PANSS Total Score, Mean (S.D.): −5.0 (18.3)
  Change from Baseline in PANSS Total Score, Median: −4
  PANSS Total Score, Trt Effect (bifeprunox minus placebo mean change from Baseline): 0.6
[1]; Bifeprunox 10 mg, Week 1, LOCF
  Change from Baseline in PANSS Total Score, Mean (S.D.): −2.9 (11.7)
  Change from Baseline in PANSS Total Score, Median: −1
[1]; Bifeprunox 10 mg, Week 2, LOCF
  Change from Baseline in PANSS Total Score, Mean (S.D.): −4.2 (14.6)
  Change from Baseline in PANSS Total Score, Median: −3
[1]; Bifeprunox 10 mg, Week 3, LOCF
  Change from Baseline in PANSS Total Score, Mean (S.D.): −4.6 (17.4)
  Change from Baseline in PANSS Total Score, Median: −3
[1]; Bifeprunox 10 mg, Week 4, LOCF
  Change from Baseline in PANSS Total Score, Mean (S.D.): −4.1 (17.2)
  Change from Baseline in PANSS Total Score, Median: −5
[1]; [5]
  Change from Baseline in PANSS Total Score, Mean (S.D.): −11.3 (17.0)
  Change from Baseline in PANSS Total Score, Median: −11
  PANSS Total Score, Trt Effect (bifeprunox minus placebo mean change from Baseline): −5.8
[1]; Bifeprunox 20 mg, Week 1, LOCF
  Change from Baseline in PANSS Total Score, Mean (S.D.): −6.3 (11.5)
  Change from Baseline in PANSS Total Score, Median: −5
[1]; Bifeprunox 20 mg, Week 2, LOCF
  Change from Baseline in PANSS Total Score, Mean (S.D.): −9.0 (14.0)
  Change from Baseline in PANSS Total Score, Median: −8
[1]; Bifeprunox 20 mg, Week 3, LOCF
  Change from Baseline in PANSS Total Score, Mean (S.D.): −11.2 (14.5)
  Change from Baseline in PANSS Total Score, Median: −11
[1]; Bifeprunox 20 mg, Week 4, LOCF
  Change from Baseline in PANSS Total Score, Mean (S.D.): −11.2 (15.9)
  Change from Baseline in PANSS Total Score, Median: −11
[1]; bifeprunox 5 mg, 6 weeks
  superiority to placebo, primary efficacy endpoint (PANSS total score): did not show superiority to placebo
[1]; bifeprunox 10 mg, 6 weeks
  improvement compared to placebo, any efficacy endpoint: did not show statistically greater improvement for any efficacy endpoint
[1]; bifeprunox 20 mg once daily, 6 weeks
  efficacy compared to placebo (PANSS total and subscale scores): effective in reducing both positive and negative symptoms of schizophrenia
[1]; bifeprunox 20 mg, 6 weeks
  greater improvement from Baseline in PANSS total score compared with placebo: 5.8 point
[1]; bifeprunox 20 mg, 6 weeks (Example 4)
  reduction in the PANSS total score compared to placebo: statistically significant (P<0.05) compared to placebo at Week 3 and Week 6/endpoint
[2]; bifeprunox 30 mg
  PANSS 20% responder rate: 36%
  PANSS 30% responder rate: 24%
  PANSS Responder at Endpoint, 30% Definition Responder, No: 106 (76%) n (%)
  PANSS Responder at Endpoint, 30% Definition Responder, Yes: 34 (24%) n (%)
  PANSS Responder at Week 6/Endpoint, 20% Definition, No: 89 (64%) n (%)
  PANSS Responder at Week 6/Endpoint, 20% Definition, Yes: 51 (36%) n (%)
[2]; bifeprunox 40 mg
  PANSS 20% responder rate: 30%
  PANSS 30% responder rate: 22%
  PANSS Responder at Endpoint, 30% Definition Responder, No: 110 (78%) n (%)
  PANSS Responder at Endpoint, 30% Definition Responder, Yes: 31 (22%) n (%)
  PANSS Responder at Week 6/Endpoint, 20% Definition, No: 99 (70%) n (%)
  PANSS Responder at Week 6/Endpoint, 20% Definition, Yes: 42 (30%) n (%)
[3]; Week 1
  Change from Baseline in PANSS Negative Symptom Subscale Score, Mean (SD): −1.5 (3.0)
  Change from Baseline in PANSS Negative Symptom Subscale Score, Median: −1
[3]; Week 2
  Change from Baseline in PANSS Negative Symptom Subscale Score, Mean (SD): −2.7 (3.6)
  Change from Baseline in PANSS Negative Symptom Subscale Score, Median: −3
[3]; Week 3
  Change from Baseline in PANSS Negative Symptom Subscale Score, Mean (SD): −3.2 (4.4)
  Change from Baseline in PANSS Negative Symptom Subscale Score, Median: −3
[3]; Week 4
  Change from Baseline in PANSS Negative Symptom Subscale Score, Mean (SD): −3.3 (4.8)
  Change from Baseline in PANSS Negative Symptom Subscale Score, Median: −3
